Assay results reported in US12568972B2, “Pyridazinol compounds and derivatives, preparation methods, herbicidal compositions and applications thereof” (Qingdao Kingagroot Chemical Compound Co., Ltd., priority 2018, dated 2026).

Test system: Veronica polita
Experiment: Post-emergence test, weed control effect
Assay type: in vivo
Settings: Dose 3000 g/ha, after 3 weeks
Summary of the method: (§1)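 Activity is expressed as a level from 0 (no effect) to 10 (plant dead), each step matching a further 10% fresh-weight inhibition, assessed 3 weeks post-treatment. Treatment: spray at 2-3 leaf stage of pot-grown plants, compound in acetone, Tween-80 and water with 80% vegetable oil methyl ester synergist at 1500 g/ha.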

Row | SMILES | weed control effect, Veronica polita (activity level) | weed control effect (activity level), Veronica polita
1 | O=S(=O)(Oc1cc(C(F)(F)F)nnc1-c1cccc(F)c1)c1ccc(Oc2ccccc2)nc1 [Compound 1-146] | 10 | –
2 | O=C(Oc1cc(C(F)(F)F)nnc1-c1ccc(F)cc1)c1ccc(Cl)cc1Cl [Compound 1-91] | 10 | –
3 | C/C(CC(C)C)=N/Oc1cc(C(F)(F)F)nnc1-c1cccc(C(F)(F)F)c1 [Compound 1-173] | 10 | –
4 | Cn1nc(C2CC2)cc1-c1nnc(C(F)(F)F)cc1O [Compound 781] | – | 10
5 | Oc1cc(C(F)(F)F)nnc1-c1cnccc1C(F)(F)F [Compound 978] | – | 10
6 | CC(C)COC(=O)Oc1cc(C(F)(F)F)nnc1-c1cccc(C(F)(F)F)c1 [Compound 1-30] | 10 | –
7 | CCc1cccc(-c2nnc(C(F)(F)F)cc2OS(=O)(=O)c2cc3ccccc3s2)c1 [Compound 1-149] | 10 | –
8 | Cn1ccnc1S(=O)(=O)Oc1cc(C(F)(F)F)nnc1-c1cccc(F)c1 [Compound 1-150] | 10 | –
9 | Oc1cc(C(F)(F)F)nnc1-c1ccc2c(c1)OC(F)(F)O2 [Compound 1286] | – | 10
10 | CN(C)c1cnn(C)c1-c1nnc(C(F)(F)F)cc1O [Compound 816] | – | 10
11 | O=C(CSc1ccccc1)Oc1cc(C(F)(F)F)nnc1-c1ccc(F)c(F)c1 [Compound 1-95] | 10 | –

Same assay, conditions: dose 1000 g/ha, after 3 weeks

Row | SMILES | weed control effect (activity level), Veronica polita
12 | Oc1cc(C(F)(F)F)nnc1-c1ccc(OC(F)(F)F)cc1 [Compound 128] | 10
13 | O=[N+]([O-])c1ccc(F)c(-c2nnc(C(F)(F)F)cc2O)c1 [Compound 61] | 10
14 | Cc1cc(Cl)ccc1-c1nnc(C(F)(F)F)cc1O [Compound 71] | 10
15 | CC(C)Sc1ccc(-c2nnc(C(F)(F)F)cc2O)cc1 [Compound 96] | 10
16 | Oc1cc(C(F)(F)F)nnc1-c1c(F)cccc1Br [Compound 47] | 10

Same assay, conditions: dose 2000 g/ha, after 3 weeks

Row | SMILES | weed control effect (activity level), Veronica polita
17 | Oc1cc(C(F)(F)F)nnc1-c1cc(Cl)c(-c2ccccc2)c(Cl)c1 [Compound 168] | 10
18 | Oc1cc(C(F)(F)F)nnc1-c1cc(Cl)ncc1Cl [Compound 224] | 10

Test system: Amaranthus retroflexus
Experiment: Post-emergence test, weed control effect
Assay type: in vivo
Settings: Dose 3000 g/ha, after 3 weeks
Summary of the method: as §1

Row | SMILES | weed control effect, Amaranthus retroflexus (activity level) | weed control effect (activity level), Amaranthus retroflexus
19 | O=S(=O)(Oc1cc(C(F)(F)F)nnc1-c1cccc(F)c1)c1ccc(Oc2ccccc2)nc1 [Compound 1-146] | 10 | –
20 | O=C(Oc1cc(C(F)(F)F)nnc1-c1ccc(F)cc1)c1ccc(Cl)cc1Cl [Compound 1-91] | 10 | –
21 | C/C(CC(C)C)=N/Oc1cc(C(F)(F)F)nnc1-c1cccc(C(F)(F)F)c1 [Compound 1-173] | 10 | –
22 | Cn1nc(C2CC2)cc1-c1nnc(C(F)(F)F)cc1O [Compound 781] | – | 10
23 | Oc1cc(C(F)(F)F)nnc1-c1cnccc1C(F)(F)F [Compound 978] | – | 10
24 | CC(C)COC(=O)Oc1cc(C(F)(F)F)nnc1-c1cccc(C(F)(F)F)c1 [Compound 1-30] | 10 | –
25 | CCc1cccc(-c2nnc(C(F)(F)F)cc2OS(=O)(=O)c2cc3ccccc3s2)c1 [Compound 1-149] | 10 | –
26 | Cn1ccnc1S(=O)(=O)Oc1cc(C(F)(F)F)nnc1-c1cccc(F)c1 [Compound 1-150] | 10 | –
27 | Oc1cc(C(F)(F)F)nnc1-c1ccc2c(c1)OC(F)(F)O2 [Compound 1286] | – | 10
28 | CN(C)c1cnn(C)c1-c1nnc(C(F)(F)F)cc1O [Compound 816] | – | 10
29 | O=C(CSc1ccccc1)Oc1cc(C(F)(F)F)nnc1-c1ccc(F)c(F)c1 [Compound 1-95] | 10 | –

Same assay, conditions: dose 1000 g/ha, after 3 weeks

Row | SMILES | weed control effect (activity level), Amaranthus retroflexus
30 | Oc1cc(C(F)(F)F)nnc1-c1ccc(OC(F)(F)F)cc1 [Compound 128] | 10
31 | O=[N+]([O-])c1ccc(F)c(-c2nnc(C(F)(F)F)cc2O)c1 [Compound 61] | 10
32 | Cc1cc(Cl)ccc1-c1nnc(C(F)(F)F)cc1O [Compound 71] | 10
33 | CC(C)Sc1ccc(-c2nnc(C(F)(F)F)cc2O)cc1 [Compound 96] | 10
34 | Oc1cc(C(F)(F)F)nnc1-c1c(F)cccc1Br [Compound 47] | 10

Same assay, conditions: dose 2000 g/ha, after 3 weeks

Row | SMILES | weed control effect (activity level), Amaranthus retroflexus
35 | Oc1cc(C(F)(F)F)nnc1-c1cc(Cl)c(-c2ccccc2)c(Cl)c1 [Compound 168] | 10
36 | Oc1cc(C(F)(F)F)nnc1-c1cc(Cl)ncc1Cl [Compound 224] | 10

Test system: Rorippa indica
Experiment: Post-emergence test, weed control effect
Assay type: in vivo
Settings: Dose 3000 g/ha, after 3 weeks
Summary of the method: as §1

Row | SMILES | weed control effect, Rorippa indica (activity level) | weed control effect (activity level), Rorippa indica
37 | O=S(=O)(Oc1cc(C(F)(F)F)nnc1-c1cccc(F)c1)c1ccc(Oc2ccccc2)nc1 [Compound 1-146] | 10 | –
38 | O=C(Oc1cc(C(F)(F)F)nnc1-c1ccc(F)cc1)c1ccc(Cl)cc1Cl [Compound 1-91] | 10 | –
39 | C/C(CC(C)C)=N/Oc1cc(C(F)(F)F)nnc1-c1cccc(C(F)(F)F)c1 [Compound 1-173] | 10 | –
40 | Cn1nc(C2CC2)cc1-c1nnc(C(F)(F)F)cc1O [Compound 781] | – | 10
41 | Oc1cc(C(F)(F)F)nnc1-c1cnccc1C(F)(F)F [Compound 978] | – | 10
42 | CC(C)COC(=O)Oc1cc(C(F)(F)F)nnc1-c1cccc(C(F)(F)F)c1 [Compound 1-30] | 10 | –
43 | CCc1cccc(-c2nnc(C(F)(F)F)cc2OS(=O)(=O)c2cc3ccccc3s2)c1 [Compound 1-149] | 10 | –
44 | Cn1ccnc1S(=O)(=O)Oc1cc(C(F)(F)F)nnc1-c1cccc(F)c1 [Compound 1-150] | 10 | –
45 | Oc1cc(C(F)(F)F)nnc1-c1ccc2c(c1)OC(F)(F)O2 [Compound 1286] | – | 10
46 | CN(C)c1cnn(C)c1-c1nnc(C(F)(F)F)cc1O [Compound 816] | – | 10
47 | O=C(CSc1ccccc1)Oc1cc(C(F)(F)F)nnc1-c1ccc(F)c(F)c1 [Compound 1-95] | 10 | –

Same assay, conditions: dose 1000 g/ha, after 3 weeks

Row | SMILES | weed control effect (activity level), Rorippa indica
48 | Oc1cc(C(F)(F)F)nnc1-c1ccc(OC(F)(F)F)cc1 [Compound 128] | 10
49 | O=[N+]([O-])c1ccc(F)c(-c2nnc(C(F)(F)F)cc2O)c1 [Compound 61] | 10
50 | Cc1cc(Cl)ccc1-c1nnc(C(F)(F)F)cc1O [Compound 71] | 10
51 | CC(C)Sc1ccc(-c2nnc(C(F)(F)F)cc2O)cc1 [Compound 96] | 10
52 | Oc1cc(C(F)(F)F)nnc1-c1c(F)cccc1Br [Compound 47] | 10

Same assay, conditions: dose 2000 g/ha, after 3 weeks

Row | SMILES | weed control effect (activity level), Rorippa indica
53 | Oc1cc(C(F)(F)F)nnc1-c1cc(Cl)c(-c2ccccc2)c(Cl)c1 [Compound 168] | 10
54 | Oc1cc(C(F)(F)F)nnc1-c1cc(Cl)ncc1Cl [Compound 224] | 10

Test system: Chenopodiaceae
Experiment: Post-emergence test, weed control effect
Assay type: in vivo
Settings: Dose 3000 g/ha, after 3 weeks
Summary of the method: as §1

Row | SMILES | weed control effect, Chenopodiaceae (activity level) | weed control effect (activity level), Chenopodiaceae
55 | O=S(=O)(Oc1cc(C(F)(F)F)nnc1-c1cccc(F)c1)c1ccc(Oc2ccccc2)nc1 [Compound 1-146] | 10 | –
56 | O=C(Oc1cc(C(F)(F)F)nnc1-c1ccc(F)cc1)c1ccc(Cl)cc1Cl [Compound 1-91] | 10 | –
57 | C/C(CC(C)C)=N/Oc1cc(C(F)(F)F)nnc1-c1cccc(C(F)(F)F)c1 [Compound 1-173] | 10 | –
58 | Cn1nc(C2CC2)cc1-c1nnc(C(F)(F)F)cc1O [Compound 781] | – | 10
59 | Oc1cc(C(F)(F)F)nnc1-c1cnccc1C(F)(F)F [Compound 978] | – | 10
60 | CC(C)COC(=O)Oc1cc(C(F)(F)F)nnc1-c1cccc(C(F)(F)F)c1 [Compound 1-30] | 10 | –
61 | CCc1cccc(-c2nnc(C(F)(F)F)cc2OS(=O)(=O)c2cc3ccccc3s2)c1 [Compound 1-149] | 10 | –
62 | Cn1ccnc1S(=O)(=O)Oc1cc(C(F)(F)F)nnc1-c1cccc(F)c1 [Compound 1-150] | 10 | –
63 | Oc1cc(C(F)(F)F)nnc1-c1ccc2c(c1)OC(F)(F)O2 [Compound 1286] | – | 10
64 | CN(C)c1cnn(C)c1-c1nnc(C(F)(F)F)cc1O [Compound 816] | – | 10
65 | O=C(CSc1ccccc1)Oc1cc(C(F)(F)F)nnc1-c1ccc(F)c(F)c1 [Compound 1-95] | 10 | –

Same assay, conditions: dose 1000 g/ha, after 3 weeks

Row | SMILES | weed control effect (activity level), Chenopodiaceae
66 | Oc1cc(C(F)(F)F)nnc1-c1ccc(OC(F)(F)F)cc1 [Compound 128] | 10
67 | O=[N+]([O-])c1ccc(F)c(-c2nnc(C(F)(F)F)cc2O)c1 [Compound 61] | 10
68 | Cc1cc(Cl)ccc1-c1nnc(C(F)(F)F)cc1O [Compound 71] | 10
69 | CC(C)Sc1ccc(-c2nnc(C(F)(F)F)cc2O)cc1 [Compound 96] | 10
70 | Oc1cc(C(F)(F)F)nnc1-c1c(F)cccc1Br [Compound 47] | 10

Same assay, conditions: dose 2000 g/ha, after 3 weeks

Row | SMILES | weed control effect (activity level), Chenopodiaceae
71 | Oc1cc(C(F)(F)F)nnc1-c1cc(Cl)c(-c2ccccc2)c(Cl)c1 [Compound 168] | 10
72 | Oc1cc(C(F)(F)F)nnc1-c1cc(Cl)ncc1Cl [Compound 224] | 10
